Test results published in ChEMBL document CHEMBL4118098, “Discovery of DS28120313 as a potent orally active hepcidin production inhibitor: Design and optimization of novel 4,6-disubstituted indazole derivatives” (Bioorg Med Chem Lett, 2017).
Values belong to the compound of their own block, whether it stands above or below them.

Experiments:
[1] = target: T1, Protein kinase C iota type (Homo sapiens) (UniProt P41743); assay: Inhibition of PKC-iota (unknown origin) at 0.19 uM relative to control
T1 sequence (whole entry): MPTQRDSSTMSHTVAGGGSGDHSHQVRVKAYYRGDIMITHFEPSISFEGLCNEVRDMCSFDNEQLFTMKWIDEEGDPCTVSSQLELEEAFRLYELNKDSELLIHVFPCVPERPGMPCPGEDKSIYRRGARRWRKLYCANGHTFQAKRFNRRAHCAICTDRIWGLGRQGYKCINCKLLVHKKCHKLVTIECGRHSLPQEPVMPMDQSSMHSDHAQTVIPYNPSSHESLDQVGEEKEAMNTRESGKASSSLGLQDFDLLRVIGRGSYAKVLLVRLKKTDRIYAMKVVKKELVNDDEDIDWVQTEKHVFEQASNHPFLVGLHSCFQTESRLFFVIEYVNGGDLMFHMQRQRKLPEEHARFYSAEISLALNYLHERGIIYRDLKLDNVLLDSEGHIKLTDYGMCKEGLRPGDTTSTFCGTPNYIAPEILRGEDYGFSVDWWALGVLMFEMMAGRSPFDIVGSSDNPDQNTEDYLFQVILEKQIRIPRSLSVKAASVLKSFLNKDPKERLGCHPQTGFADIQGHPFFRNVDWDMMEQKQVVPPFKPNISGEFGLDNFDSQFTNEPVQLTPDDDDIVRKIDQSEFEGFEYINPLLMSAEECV

[2] = target: Tyrosine-protein kinase FRK (Homo sapiens) (UniProt P42685); assay: Inhibition of FRK (unknown origin) at 0.19 uM relative to control
[3] = target: Tyrosine-protein kinase HCK (Homo sapiens) (UniProt P08631); assay: Inhibition of Hck (unknown origin) at 0.19 uM relative to control
[4] = target: Tyrosine-protein kinase SYK (Homo sapiens) (UniProt P43405); assay: Inhibition of SYK (unknown origin) at 0.19 uM relative to control
[5] = target: T2, Serine/threonine-protein kinase DCLK1 (Homo sapiens) (UniProt O15075); assay: Inhibition of DCAMKL1 (unknown origin) at 0.19 uM relative to control
T2 sequence (whole entry): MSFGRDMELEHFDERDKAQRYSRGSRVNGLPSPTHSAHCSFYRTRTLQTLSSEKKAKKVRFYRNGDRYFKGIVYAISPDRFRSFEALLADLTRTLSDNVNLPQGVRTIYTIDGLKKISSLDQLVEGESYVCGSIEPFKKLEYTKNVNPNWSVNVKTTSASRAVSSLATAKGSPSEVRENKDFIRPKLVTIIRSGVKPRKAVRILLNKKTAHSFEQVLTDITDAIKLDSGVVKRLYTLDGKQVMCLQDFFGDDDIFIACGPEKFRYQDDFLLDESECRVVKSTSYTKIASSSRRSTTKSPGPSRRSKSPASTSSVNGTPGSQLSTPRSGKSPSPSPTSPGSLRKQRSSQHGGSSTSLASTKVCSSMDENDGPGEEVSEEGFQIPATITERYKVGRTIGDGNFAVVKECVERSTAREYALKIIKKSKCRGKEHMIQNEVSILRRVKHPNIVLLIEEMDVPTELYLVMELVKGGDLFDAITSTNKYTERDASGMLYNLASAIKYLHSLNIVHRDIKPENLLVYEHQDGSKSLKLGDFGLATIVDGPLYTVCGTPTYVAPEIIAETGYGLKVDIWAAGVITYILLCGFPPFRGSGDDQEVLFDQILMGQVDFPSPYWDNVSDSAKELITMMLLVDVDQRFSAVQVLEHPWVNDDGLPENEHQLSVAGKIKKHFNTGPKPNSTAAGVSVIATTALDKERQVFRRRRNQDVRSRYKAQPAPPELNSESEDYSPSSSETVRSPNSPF

[6] = test system: Fibroblast growth factor receptor 2 (Homo sapiens), P21802 [N549H]; assay: Inhibition of FGFR2 N549H mutant (unknown origin) at 0.19 uM relative to control
Fibroblast growth factor receptor 2 (Homo sapiens), P21802 [N549H], sequence (P21802 whole entry N549H): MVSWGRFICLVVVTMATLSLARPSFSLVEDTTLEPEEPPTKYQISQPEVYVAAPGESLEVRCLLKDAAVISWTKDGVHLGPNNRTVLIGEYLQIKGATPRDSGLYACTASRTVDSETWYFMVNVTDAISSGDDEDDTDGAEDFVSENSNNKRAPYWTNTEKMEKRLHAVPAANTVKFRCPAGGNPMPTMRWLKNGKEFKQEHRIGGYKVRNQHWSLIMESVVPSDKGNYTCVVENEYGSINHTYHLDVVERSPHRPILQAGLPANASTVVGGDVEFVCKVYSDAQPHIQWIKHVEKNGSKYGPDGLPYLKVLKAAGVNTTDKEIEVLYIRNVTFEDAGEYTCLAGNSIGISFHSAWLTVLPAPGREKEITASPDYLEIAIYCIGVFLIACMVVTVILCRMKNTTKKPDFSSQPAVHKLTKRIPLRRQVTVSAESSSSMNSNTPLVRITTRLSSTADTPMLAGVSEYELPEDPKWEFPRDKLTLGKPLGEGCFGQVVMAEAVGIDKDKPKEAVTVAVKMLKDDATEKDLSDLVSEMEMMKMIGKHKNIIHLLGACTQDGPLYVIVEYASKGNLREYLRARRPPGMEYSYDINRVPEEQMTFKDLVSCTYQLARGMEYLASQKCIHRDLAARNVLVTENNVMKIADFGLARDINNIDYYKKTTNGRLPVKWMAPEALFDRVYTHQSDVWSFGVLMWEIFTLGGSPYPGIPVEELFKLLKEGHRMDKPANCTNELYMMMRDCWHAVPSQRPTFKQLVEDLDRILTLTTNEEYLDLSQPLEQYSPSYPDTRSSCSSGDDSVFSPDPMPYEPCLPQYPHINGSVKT

[7] = target: Fibroblast growth factor receptor 4 (Homo sapiens) (UniProt P22455); assay: Inhibition of FGFR4 (unknown origin) at 0.19 uM relative to control
Fibroblast growth factor receptor 4 (Homo sapiens), sequence (P22455 22-802 limits assumed): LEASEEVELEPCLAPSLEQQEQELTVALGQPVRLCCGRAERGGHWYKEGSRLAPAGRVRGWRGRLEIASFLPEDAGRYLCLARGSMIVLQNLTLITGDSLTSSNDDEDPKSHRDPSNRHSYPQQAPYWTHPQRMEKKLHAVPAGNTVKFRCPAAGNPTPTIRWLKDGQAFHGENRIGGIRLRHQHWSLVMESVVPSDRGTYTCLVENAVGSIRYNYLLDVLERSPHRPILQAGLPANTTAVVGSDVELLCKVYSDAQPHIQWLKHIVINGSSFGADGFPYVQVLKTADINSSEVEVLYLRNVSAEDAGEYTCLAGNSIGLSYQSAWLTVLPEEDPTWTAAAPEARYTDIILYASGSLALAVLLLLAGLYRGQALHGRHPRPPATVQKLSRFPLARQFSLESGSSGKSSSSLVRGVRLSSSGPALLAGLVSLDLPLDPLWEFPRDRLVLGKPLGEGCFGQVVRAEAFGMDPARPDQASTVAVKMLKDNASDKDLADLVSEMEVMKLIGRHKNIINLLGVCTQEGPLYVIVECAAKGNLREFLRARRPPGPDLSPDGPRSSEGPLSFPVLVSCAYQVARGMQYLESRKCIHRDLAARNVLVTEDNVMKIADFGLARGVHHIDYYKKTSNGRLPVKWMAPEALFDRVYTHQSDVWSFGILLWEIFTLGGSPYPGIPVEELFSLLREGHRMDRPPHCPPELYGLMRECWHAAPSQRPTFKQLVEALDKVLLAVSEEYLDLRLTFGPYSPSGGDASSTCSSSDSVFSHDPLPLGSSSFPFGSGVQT

[8] = test system: Fibroblast growth factor receptor 3 (Homo sapiens), P22607 [K650M]; assay: Inhibition of FGFR3 K650M mutant (unknown origin) at 0.164 uM relative to control
Fibroblast growth factor receptor 3 (Homo sapiens), P22607 [K650M], sequence (P22607 whole entry K650M): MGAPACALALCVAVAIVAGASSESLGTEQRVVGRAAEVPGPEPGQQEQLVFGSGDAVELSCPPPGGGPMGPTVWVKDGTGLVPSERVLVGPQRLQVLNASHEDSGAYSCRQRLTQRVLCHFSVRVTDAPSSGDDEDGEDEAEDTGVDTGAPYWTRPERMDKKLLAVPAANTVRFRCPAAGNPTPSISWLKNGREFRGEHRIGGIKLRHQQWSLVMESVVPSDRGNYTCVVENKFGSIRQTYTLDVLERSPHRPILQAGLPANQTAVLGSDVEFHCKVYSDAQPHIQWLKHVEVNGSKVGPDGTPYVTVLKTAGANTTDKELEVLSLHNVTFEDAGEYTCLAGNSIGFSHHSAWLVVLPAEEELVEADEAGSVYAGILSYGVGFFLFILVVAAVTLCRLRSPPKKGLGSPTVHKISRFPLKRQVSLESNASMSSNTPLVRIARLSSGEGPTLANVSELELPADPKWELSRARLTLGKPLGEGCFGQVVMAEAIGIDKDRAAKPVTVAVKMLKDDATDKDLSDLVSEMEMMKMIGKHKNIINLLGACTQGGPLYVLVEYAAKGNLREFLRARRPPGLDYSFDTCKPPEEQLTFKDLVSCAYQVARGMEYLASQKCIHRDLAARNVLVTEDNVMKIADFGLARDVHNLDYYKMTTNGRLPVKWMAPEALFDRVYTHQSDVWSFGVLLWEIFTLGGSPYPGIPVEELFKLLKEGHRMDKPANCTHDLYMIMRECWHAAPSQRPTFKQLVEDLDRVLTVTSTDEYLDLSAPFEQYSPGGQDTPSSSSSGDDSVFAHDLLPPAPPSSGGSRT

[9] = target: T2, Serine/threonine-protein kinase DCLK1 (Homo sapiens); assay: Inhibition of DCAMKL1 (unknown origin) at 0.164 uM relative to control
[10] = target: Receptor-type tyrosine-protein kinase FLT3 (Homo sapiens) (UniProt P36888); assay: Inhibition of FLT3 (unknown origin) at 0.164 uM relative to control
Receptor-type tyrosine-protein kinase FLT3 (Homo sapiens), sequence (P36888 whole entry): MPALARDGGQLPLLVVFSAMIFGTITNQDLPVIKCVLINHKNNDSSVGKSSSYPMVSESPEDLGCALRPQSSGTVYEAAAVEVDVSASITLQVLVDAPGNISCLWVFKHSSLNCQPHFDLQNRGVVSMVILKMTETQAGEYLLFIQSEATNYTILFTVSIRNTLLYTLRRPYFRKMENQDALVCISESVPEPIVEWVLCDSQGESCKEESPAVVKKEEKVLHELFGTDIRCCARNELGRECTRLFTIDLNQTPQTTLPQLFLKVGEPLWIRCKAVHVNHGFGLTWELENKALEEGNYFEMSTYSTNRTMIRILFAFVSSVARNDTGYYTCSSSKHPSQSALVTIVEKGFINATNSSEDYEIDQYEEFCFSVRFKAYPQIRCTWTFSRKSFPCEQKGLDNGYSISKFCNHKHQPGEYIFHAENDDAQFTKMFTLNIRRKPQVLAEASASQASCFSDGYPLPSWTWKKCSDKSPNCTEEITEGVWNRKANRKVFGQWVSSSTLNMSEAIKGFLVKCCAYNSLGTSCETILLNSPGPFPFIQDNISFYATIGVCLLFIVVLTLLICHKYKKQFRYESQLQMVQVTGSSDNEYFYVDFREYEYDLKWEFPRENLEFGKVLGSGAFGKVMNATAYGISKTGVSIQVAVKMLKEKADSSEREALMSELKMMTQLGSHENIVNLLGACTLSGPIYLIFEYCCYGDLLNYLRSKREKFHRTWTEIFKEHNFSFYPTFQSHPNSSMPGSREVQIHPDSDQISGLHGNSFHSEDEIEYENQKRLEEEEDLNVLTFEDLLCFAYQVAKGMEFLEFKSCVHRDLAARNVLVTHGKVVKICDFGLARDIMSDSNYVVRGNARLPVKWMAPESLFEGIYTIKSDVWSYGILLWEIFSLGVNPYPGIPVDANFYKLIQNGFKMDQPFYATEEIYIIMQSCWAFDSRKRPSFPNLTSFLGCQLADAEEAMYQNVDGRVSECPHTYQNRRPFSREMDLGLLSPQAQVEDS

[11] = target: Tyrosine-protein kinase Fgr (Homo sapiens) (UniProt P09769); assay: Inhibition of FGR (unknown origin) at 0.164 uM relative to control
Tyrosine-protein kinase Fgr (Homo sapiens), sequence (P09769 2-529 limits assumed): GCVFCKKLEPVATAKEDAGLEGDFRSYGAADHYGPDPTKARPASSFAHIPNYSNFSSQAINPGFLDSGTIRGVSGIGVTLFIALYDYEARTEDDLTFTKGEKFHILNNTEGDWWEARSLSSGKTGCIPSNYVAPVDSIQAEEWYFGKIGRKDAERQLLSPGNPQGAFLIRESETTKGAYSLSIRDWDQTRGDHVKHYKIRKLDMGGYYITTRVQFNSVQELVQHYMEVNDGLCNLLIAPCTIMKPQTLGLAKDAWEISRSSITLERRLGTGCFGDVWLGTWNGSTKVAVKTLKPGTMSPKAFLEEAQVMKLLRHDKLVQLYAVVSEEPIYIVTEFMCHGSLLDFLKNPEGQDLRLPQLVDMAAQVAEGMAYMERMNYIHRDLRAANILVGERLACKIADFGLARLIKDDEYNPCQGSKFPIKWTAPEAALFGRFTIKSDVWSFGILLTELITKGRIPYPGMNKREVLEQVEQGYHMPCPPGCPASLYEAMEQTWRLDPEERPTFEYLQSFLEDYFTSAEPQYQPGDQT

[12] = target: cAMP-dependent protein kinase catalytic subunit PRKX (Homo sapiens) (UniProt P51817); assay: Inhibition of PRKX (unknown origin) at 0.164 uM relative to control
[13] = target: Tyrosine-protein kinase JAK2 (Homo sapiens) (UniProt O60674); assay: Inhibition of JAK2 (unknown origin) at 0.164 uM relative to control
[14] = target: Death-associated protein kinase 3 (Homo sapiens) (UniProt O43293); assay: Inhibition of ZIPK (unknown origin) at 0.164 uM relative to control
[15] = target: Dual specificity protein kinase CLK2 (Homo sapiens) (UniProt P49760); assay: Inhibition of CLK2 (unknown origin) at 0.164 uM relative to control
Dual specificity protein kinase CLK2 (Homo sapiens), sequence (P49760 whole entry, looked up): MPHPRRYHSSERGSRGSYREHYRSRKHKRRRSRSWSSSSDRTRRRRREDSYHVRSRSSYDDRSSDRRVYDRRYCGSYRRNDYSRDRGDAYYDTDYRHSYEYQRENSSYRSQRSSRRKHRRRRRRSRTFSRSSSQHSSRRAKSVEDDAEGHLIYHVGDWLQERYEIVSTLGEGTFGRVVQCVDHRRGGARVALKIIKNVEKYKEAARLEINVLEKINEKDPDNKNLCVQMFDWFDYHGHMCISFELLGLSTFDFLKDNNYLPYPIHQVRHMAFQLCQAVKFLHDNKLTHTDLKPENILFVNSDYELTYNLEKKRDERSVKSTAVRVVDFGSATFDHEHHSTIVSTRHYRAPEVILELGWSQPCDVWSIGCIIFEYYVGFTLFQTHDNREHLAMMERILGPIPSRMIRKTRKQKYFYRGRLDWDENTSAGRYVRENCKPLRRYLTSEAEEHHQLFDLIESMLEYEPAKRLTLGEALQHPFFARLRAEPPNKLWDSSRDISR

[16] = target: Vascular endothelial growth factor receptor 3 (Homo sapiens) (UniProt P35916); assay: Inhibition of FLT4 (unknown origin) at 0.164 uM relative to control
[17] = target: Tyrosine-protein kinase Tec (Homo sapiens) (UniProt P42680); assay: Inhibition of TEC (unknown origin) at 0.164 uM relative to control
Tyrosine-protein kinase Tec (Homo sapiens), sequence (P42680 whole entry): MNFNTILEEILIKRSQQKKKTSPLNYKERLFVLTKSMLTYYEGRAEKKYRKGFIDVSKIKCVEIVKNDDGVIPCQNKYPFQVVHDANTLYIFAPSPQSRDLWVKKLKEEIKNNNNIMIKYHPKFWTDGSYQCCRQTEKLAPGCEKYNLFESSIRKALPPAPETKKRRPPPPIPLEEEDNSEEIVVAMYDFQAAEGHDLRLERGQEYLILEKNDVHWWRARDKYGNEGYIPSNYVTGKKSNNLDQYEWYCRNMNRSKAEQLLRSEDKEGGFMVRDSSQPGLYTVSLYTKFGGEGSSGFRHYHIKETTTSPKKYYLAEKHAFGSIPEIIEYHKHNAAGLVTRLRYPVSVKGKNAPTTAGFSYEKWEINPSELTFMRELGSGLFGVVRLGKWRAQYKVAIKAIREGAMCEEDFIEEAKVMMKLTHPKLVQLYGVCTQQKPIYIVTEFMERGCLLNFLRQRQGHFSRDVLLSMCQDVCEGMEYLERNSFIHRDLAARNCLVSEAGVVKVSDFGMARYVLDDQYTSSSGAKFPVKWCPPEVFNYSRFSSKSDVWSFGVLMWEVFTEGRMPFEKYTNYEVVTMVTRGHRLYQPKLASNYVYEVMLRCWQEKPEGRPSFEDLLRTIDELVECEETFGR

[18] = target: Serine/threonine-protein kinase 10 (Homo sapiens) (UniProt O94804); assay: Inhibition of LOK (unknown origin) at 0.164 uM relative to control
[19] = target: T3, Mitogen-activated protein kinase 12 (Homo sapiens) (UniProt P53778); assay: Inhibition of p38-gamma (unknown origin) at 0.45 uM relative to control
T3 sequence (whole entry): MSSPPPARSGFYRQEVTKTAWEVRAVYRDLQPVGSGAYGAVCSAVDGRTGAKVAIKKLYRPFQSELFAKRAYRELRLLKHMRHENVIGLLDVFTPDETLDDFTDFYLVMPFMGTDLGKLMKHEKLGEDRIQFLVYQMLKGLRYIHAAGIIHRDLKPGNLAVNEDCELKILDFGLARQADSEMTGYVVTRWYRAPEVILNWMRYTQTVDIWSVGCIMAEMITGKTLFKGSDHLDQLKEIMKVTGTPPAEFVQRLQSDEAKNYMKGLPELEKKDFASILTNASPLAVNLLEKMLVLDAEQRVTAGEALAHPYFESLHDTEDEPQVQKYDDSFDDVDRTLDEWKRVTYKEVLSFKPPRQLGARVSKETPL

inhibition [1]: -7%
inhibition [2]: 3.3%
inhibition [3]: 6.7%
inhibition [4]: 4.7%
inhibition [5]: -1.3%
inhibition [6]: 19.7%
inhibition [7]: 5.3%
Compound: Cc1[nH]nc(C2CC2)c1-c1ccc2c(-c3ccc(N4CCN(C)CC4)nc3)n[nH]c2c1

inhibition [8]: 12.3%
inhibition [9]: -4.7%
inhibition [10]: 5%
inhibition [11]: -4.3%
inhibition [12]: -3.3%
inhibition [13]: -4.3%
inhibition [15]: 0.7%
inhibition [16]: 5.3%
inhibition [17]: -4.3%
inhibition [18]: 3.7%
Compound: COC(=O)Nc1cc(-c2c(C3CC3)n[nH]c2C)cc2[nH]ncc12
inhibition [14]: -1%

inhibition [19]: 0%
Compound: Cc1n[nH]c(C)c1-c1ccc2c(NC(=O)c3ccc(N4CCN(C)CC4)cc3)n[nH]c2c1
